In patent US9233978B2, “6-fused heteroaryldihydropyrimidines for the treatment and prophylaxis of hepatitis B virus infection” (Hoffmann-La Roche Inc., priority 2014, dated 2016):
Converted amounts (≈) assume the structure as drawn.

Experiments:
[1] = Human microsomal metabolic stability; assay type: in vitro ADME; conditions: human microsomes 0.5 mg/mL, 1 μM test compound, NADPH, 37° C., pH 7.4, 0-30 minutes
Summary of the method: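 1 μM compound with 0.5 mg/mL human liver microsomal protein in 100 mM phosphate pH 7.4 at 37° C, started with 1 mM NADPH or a NADPH-regenerating system. Sampled at 0–30 min, quenched in cold methanol with tolbutamide internal standard; remaining parent quantified by LC-MS/MS.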

HepDE19 cells = experiment: Cytotoxicity in HepDE19 cells (CCK-8) and selectivity index; assay type: cell-based; conditions: CC50 (HepDE19) value / EC50 (HepG2.2.15) value
Summary of the method: (§1)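 HepDE19 cells (DMEM-F12, 10% FBS) were treated with compound for five days, then given CCK-8 for 2 h at 37 °C and read at OD450 and OD630. CC50 is the concentration killing 50% of host cells. Selectivity index is CC50/EC50.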

[2] = as above; assay type: cell-based; conditions: human, HepDE19 cells; CCK-8 cell viability; five days after treatment
Summary of the method: as §1

CYP3A4 = experiment: Cytochrome P450 induction screening assay, mRNA induction in human cryopreserved hepatocytes; assay type: in vitro ADME; conditions: CYP3A4 mRNA relative induction, 24 hours, test compound up to 10 μM
Method: Human cryopreserved hepatocytes (Life Technologies, Carlsbad, USA) were thawed and cultured in collagen I coated 96-well plates with a density of 52,000 cells/well. After attachment, medium was changed and cells were pre-cultured overnight in hepatocyte maintenance medium (HMM; Lonza, Switzerland).
Test compounds were dosed to the cells next morning at an indicated concentration (up to 10 μM) in HMM culture media containing gentamycin and a constant 0.1% DMSO. Similarly, dilutions of the positive inducer compounds omeprazole (prototypical inducer of human CYP1A2; final concentrations: 1 and 10 μM), phenobarbital (prototypical inducer of human CYP2B6; final concentrations: 100 and 1000 μM) and rifampicin (prototypical inducer of human CYP3A4; final concentrations: 1 and 10 μM) were prepared from 1000 fold DMSO stock solutions in HMM containing gentamycin. Medium change was then performed and cells were exposed for 24 hours to test compounds, positive inducer compounds, or vehicle (0.1% DMSO), respectively.
At the end of the compound exposure period, medium was removed and cells lysed using 100 μL/well MagNA Pure LC RNA isolation tissue lysis buffer (Roche Diagnostics AG, Rotkreuz, Switzerland). Plates were then sealed and frozen at −80° C. until further workup.
mRNA isolation was performed using the MagNA Pure 96 system (Roche Diagnostics AG, Rotkreuz, Switzerland) and the respective cellular RNA large volume kit (Roche Diagnostics AG, Rotkreuz, Switzerland) from thawed samples diluted 1:1 with PBS. The volume of the cell lysis and an elution volume of 100 μL were used. 20 μl of the resulting mRNA suspension was then used for reverse transcription using 20 μl of the transcript or first stand cDNA synthesis kit (Roche prime Supply, Mannheim, Germany). The resulting cDNA was diluted with 40 μl of H2O before using for qRT-PCR. qRT-PCR was performed by using the forward and the reverse primer, the corresponding UPL (all from Microsynth, Balgach, Switzerland) and the Taqman Fast advanced master mix (Applied Biosystems), on an ABI 7900 machine (Applied Biosystems).
qRT-PCR Ct-values for the respective P450s were put into relation to the Ct-value of RN18S1 (microsynth, Balgach, Switzerland) of the same sample. Doing so, a respective Δct-value was calculated. Using the average of all Δct-values for the vehicle control samples, a ΔΔct-value was calculated for each sample (ΔΔct-value(sample)=Δct-value(sample)−average of Δct-value of all vehicle controls). The fold induction of the respective sample was calculated as 2^(−ΔΔct). The individual fold induction values were then averaged per treatment condition (usually n=3 biological replicates).
Relative induction values to the respective positive inducer compound condition (10 μM omeprazole for CYP1A2; 1000 μM Phenobarbital for CYP2B6; 10 μM rifampicin for CYP3A4) were then calculated from the fold induction values as follows: Relative induction (%)=100×(T−V)/(P−V)

Lysa solubility = assay type: physicochemical; conditions: phosphate buffer, pH 6.5, aqueous buffer, thermodynamic from solid, 0.05 M phosphate buffer (pH 6.5)
Summary of the method: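 Duplicate samples dried from 10 mM DMSO stocks, taken up in 0.05 M phosphate buffer pH 6.5, stirred 1 h, shaken 2 h and left overnight. Filtrate and 1/10 dilution quantified by direct UV or HPLC-UV, in μg/mL; above 80% of the calculated maximum, reported as greater than that value.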

HBV = experiment: Anti-HBV activity in vitro, HepG2.2.15 cells, extracellular HBV DNA by qPCR; assay type: cell-based; conditions: Hepatitis B virus, HepG2.2.15, 120 h, HepG2.2.15 cells; HBV replication inhibited by 50%, extracellular HBV DNA by qPCR; five days after compound treatment; read-out: EC50
Summary of the method: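 HBV-producing HepG2.2.15 cells were seeded and left overnight at 37 °C, then treated with half-log serial compound dilutions at a final 0.5% DMSO. After 5 days, viral DNA was extracted from the supernatant and extracellular HBV DNA was quantified by qPCR.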

SMILES	Human Microsomal Clearance [1]	Selectivity index (CC50/EC50) (HepDE19 cells)	CC50 at 5 days [2]	% of Positive control (10 μM Rifampicin) (CYP3A4)	solubility thermodynamic (Lysa solubility)	EC50 (HBV)
CCOC(=O)C1=C(CN2CCN3C(=O)N(C4CCC(C(=O)O)C4)C[C@@H]3C2)NC(c2nccs2)=N[C@H]1c1cccc(F)c1Cl (mixture of isomers) [Example 62, (R)-6-[(S)-2-((1R,3S)-3-Carboxy-cyclopentyl)-3-oxo-hexahydro-imidazo[1,5-a]pyrazin-7-ylmethyl]-4-(2-chloro-3-fluoro-phenyl)-2-thiazol-2-yl-1,4-dihydro-pyrimidine-5-carboxylic acid ethyl ester and (R)-6-[(S)-2-((1S,3R)-3-Carboxy-cyclopentyl)-3-oxo-hexahydro-imidazo[1,5-a]pyrazin-7-ylmethyl]-4-(2-chloro-3-fluoro-phenyl)-2-thiazol-2-yl-1,4-dihydro-pyrimidine-5-carboxylic acid ethyl ester]	1.7 mL/min/kg	>16667	> 100000 nM	0%	374 µg/mL	6 nM
COC(=O)C1=C(CN2CCN3C(=O)N(C(C)(C)C)C[C@@H]3[C@H]2C(=O)O)NC(c2nccs2)=N[C@H]1c1ccc(F)cc1Cl (single isomer, unassigned) [Example 86B]	4.7 mL/min/kg	>25000	> 100000 nM	11%	> 740 µg/mL	4 nM
CCOC(=O)C1=C(CN2CCN3C(=O)N(C(C)(C)C)C[C@@H]3[C@H]2C(=O)O)NC(c2nccs2)=N[C@H]1c1cccc(F)c1Cl (single isomer, unassigned) [Example 87B]	5.0 mL/min/kg	>100000	> 100000 nM	4.0%		1 nM
COC(=O)C1=C(CN2CCN3C(=O)N(C(C)(C)C)C[C@@H]3[C@H]2C(=O)O)NC(c2nccs2)=N[C@H]1c1ccc(F)c(F)c1C (single isomer, unassigned) [Example 88B]	4.5 mL/min/kg	>20000	> 100000 nM	3.7%	> 745 µg/mL	5 nM
CCOC(=O)C1=C(CN2CCN3C(=O)N(C)C[C@H]3[C@@H]2C(=O)O)NC(c2nccs2)=N[C@H]1c1cccc(F)c1Cl (single isomer, unassigned) [Example 91B]	5.8 mL/min/kg	>50000	> 100000 nM	1.7%	> 705 µg/mL	2 nM
CCOC(=O)C1=C(CN2CCN3C(=O)N(CC(C)(C)C(=O)O)C[C@@H]3C2)NC(c2nccs2)=N[C@H]1c1cccc(F)c1Cl [Example 19, 3-[(8aS)-7-[[(4R)-4-(2-chloro-3-fluoro-phenyl)-5-ethoxycarbonyl-2-thiazol-2-yl-1,4-dihydropyrimidin-6-yl]methyl]-3-oxo-5,6,8,8a-tetrahydro-1H-imidazo[1,5-a]pyrazin-2-yl]-2,2-dimethyl-propanoic acid]	0.4 mL/min/kg	>30303	> 100000 nM	1%	> 727 µg/mL	3 nM
CCOC(=O)C1=C(CN2CCN3C(=O)N(CC(C)C(=O)O)C[C@@H]3C2)NC(c2nccs2)=N[C@H]1c1cccc(F)c1Cl (stereo partly drawn) [Example 21, 3-[(8aS)-7-[[(4R)-4-(2-chloro-3-fluoro-phenyl)-5-ethoxycarbonyl-2-thiazol-2-yl-1,4-dihydropyrimidin-6-yl]methyl]-3-oxo-5,6,8,8a-tetrahydro-1H-imidazo[1,5-a]pyrazin-2-yl]-2-methyl-propanoic acid]	2.7 mL/min/kg	>6211	> 100000 nM	2.4%	> 786 µg/mL	16 nM
CCOC(=O)C1=C(CN2CCN3C(=O)N(C(C)(C)CC(=O)O)C[C@@H]3C2)NC(c2nccs2)=N[C@H]1c1cccc(F)c1Cl [Example 34, 3-[(8aS)-7-[[(4R)-4-(2-chloro-3-fluoro-phenyl)-5-ethoxycarbonyl-2-thiazol-2-yl-1,4-dihydropyrimidin-6-yl]methyl]-3-oxo-5,6,8,8a-tetrahydro-1H-imidazo[1,5-a]pyrazin-2-yl]-3-methyl-butanoic acid]	1.8 mL/min/kg	10655	81000 nM	0.2%	326 µg/mL (≈ 527 µM)	8 nM
CCOC(=O)C1=C(CN2CCN3C(=O)N(CC4(C(=O)O)CC4)C[C@@H]3C2)NC(c2nccs2)=N[C@H]1c1cccc(F)c1Cl [Example 36, 1-[[(8aS)-7-[[(4R)-4-(2-chloro-3-fluoro-phenyl)-5-ethoxycarbonyl-2-thiazol-2-yl-1,4-dihydropyrimidin-6-yl]methyl]-3-oxo-5,6,8,8a-tetrahydro-1H-imidazo[1,5-a]pyrazin-2-yl]methyl]cyclopropanecarboxylic acid]	4.4 mL/min/kg	>18181	> 100000 nM	6%	485 µg/mL (≈ 786 µM)	6 nM
COC(=O)C1=C(CN2CCN3C(=O)N(CC4(C(=O)O)CC4)C[C@@H]3C2)NC(c2nccs2)=N[C@H]1c1ccc(F)c(F)c1C [Example 38, 1-[[(8aS)-7-[[(4S)-4-(3,4-difluoro-2-methyl-phenyl)-5-methoxycarbonyl-2-thiazol-2-yl-1,4-dihydropyrimidin-6-yl]methyl]-3-oxo-5,6,8,8a-tetrahydro-1H-imidazo[1,5-a]pyrazin-2-yl]methyl]cyclopropanecarboxylic acid]	2.0 mL/min/kg	21276	100000 nM	0.2%	627 µg/mL (≈ 1040 µM)	5 nM
COC(=O)C1=C(CN2CCN3C(=O)N(CC(C)(C)C(=O)O)C[C@@H]3C2)NC(c2nccs2)=N[C@H]1c1ccc(F)cc1Cl [Example 42, 3-[(8aS)-7-[[(4R)-4-(2-chloro-4-fluoro-phenyl)-5-methoxycarbonyl-2-thiazol-2-yl-1,4-dihydropyrimidin-6-yl]methyl]-3-oxo-5,6,8,8a-tetrahydro-1H-imidazo[1,5-a]pyrazin-2-yl]-2,2-dimethyl-propanoic acid]	2.0 mL/min/kg	>15625	> 100000 nM	0.6%	> 785 µg/mL	6 nM
